{
  "source": "patent US20190002825A1",
  "about": "“Method for Inducing Targeted Differentiation of Human Stem Cells Toward Hepatic Cells” (TRANSCEND CYTOTHERAPY CO., LTD, priority 2015, published 2019)",
  "key": {"[1]": {"conditions": "in vivo; cited from earlier work"}, "[2]": {"conditions": "in vivo; cited from earlier work", "remark": "listed apart in the source"}, "[3]": {"system": "Wnt signaling pathway", "conditions": "cited from earlier work"}, "[4]": {"system": "CDC2, ERK2 and other kinases", "conditions": "cited from earlier work"}, "[5]": {"biological_target": "TGF-β type II receptors (Homo sapiens, UniProt P37173)", "sequence (P37173 23-567)": "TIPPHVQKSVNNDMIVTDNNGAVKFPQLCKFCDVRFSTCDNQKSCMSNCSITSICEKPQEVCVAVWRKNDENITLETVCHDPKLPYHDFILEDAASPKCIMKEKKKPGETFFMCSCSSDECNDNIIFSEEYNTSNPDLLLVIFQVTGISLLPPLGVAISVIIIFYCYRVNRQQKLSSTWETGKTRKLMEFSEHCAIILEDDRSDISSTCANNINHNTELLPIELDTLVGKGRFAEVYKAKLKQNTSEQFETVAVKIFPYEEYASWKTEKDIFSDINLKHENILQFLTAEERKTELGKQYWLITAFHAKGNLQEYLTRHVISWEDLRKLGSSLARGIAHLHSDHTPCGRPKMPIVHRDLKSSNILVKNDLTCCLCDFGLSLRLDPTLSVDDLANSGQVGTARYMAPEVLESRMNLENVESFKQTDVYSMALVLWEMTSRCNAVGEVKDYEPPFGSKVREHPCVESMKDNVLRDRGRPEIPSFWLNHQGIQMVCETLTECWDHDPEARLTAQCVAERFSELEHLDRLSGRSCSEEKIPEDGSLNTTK", "conditions": "cited from earlier work"}, "[6]": {"system": "activin type II receptors", "conditions": "cited from earlier work"}, "[7]": {"system": "BMP type II receptors", "conditions": "cited from earlier work"}, "[8]": {"biological_target": "TGF-β receptor type II (TβRII) (Homo sapiens, UniProt P37173)", "sequence (P37173 23-567)": "as above", "conditions": "cell-free assays; cited from earlier work"}, "[9]": {"biological_target": "ROCK1 (Homo sapiens, UniProt Q13464)", "sequence (Q13464 whole entry)": "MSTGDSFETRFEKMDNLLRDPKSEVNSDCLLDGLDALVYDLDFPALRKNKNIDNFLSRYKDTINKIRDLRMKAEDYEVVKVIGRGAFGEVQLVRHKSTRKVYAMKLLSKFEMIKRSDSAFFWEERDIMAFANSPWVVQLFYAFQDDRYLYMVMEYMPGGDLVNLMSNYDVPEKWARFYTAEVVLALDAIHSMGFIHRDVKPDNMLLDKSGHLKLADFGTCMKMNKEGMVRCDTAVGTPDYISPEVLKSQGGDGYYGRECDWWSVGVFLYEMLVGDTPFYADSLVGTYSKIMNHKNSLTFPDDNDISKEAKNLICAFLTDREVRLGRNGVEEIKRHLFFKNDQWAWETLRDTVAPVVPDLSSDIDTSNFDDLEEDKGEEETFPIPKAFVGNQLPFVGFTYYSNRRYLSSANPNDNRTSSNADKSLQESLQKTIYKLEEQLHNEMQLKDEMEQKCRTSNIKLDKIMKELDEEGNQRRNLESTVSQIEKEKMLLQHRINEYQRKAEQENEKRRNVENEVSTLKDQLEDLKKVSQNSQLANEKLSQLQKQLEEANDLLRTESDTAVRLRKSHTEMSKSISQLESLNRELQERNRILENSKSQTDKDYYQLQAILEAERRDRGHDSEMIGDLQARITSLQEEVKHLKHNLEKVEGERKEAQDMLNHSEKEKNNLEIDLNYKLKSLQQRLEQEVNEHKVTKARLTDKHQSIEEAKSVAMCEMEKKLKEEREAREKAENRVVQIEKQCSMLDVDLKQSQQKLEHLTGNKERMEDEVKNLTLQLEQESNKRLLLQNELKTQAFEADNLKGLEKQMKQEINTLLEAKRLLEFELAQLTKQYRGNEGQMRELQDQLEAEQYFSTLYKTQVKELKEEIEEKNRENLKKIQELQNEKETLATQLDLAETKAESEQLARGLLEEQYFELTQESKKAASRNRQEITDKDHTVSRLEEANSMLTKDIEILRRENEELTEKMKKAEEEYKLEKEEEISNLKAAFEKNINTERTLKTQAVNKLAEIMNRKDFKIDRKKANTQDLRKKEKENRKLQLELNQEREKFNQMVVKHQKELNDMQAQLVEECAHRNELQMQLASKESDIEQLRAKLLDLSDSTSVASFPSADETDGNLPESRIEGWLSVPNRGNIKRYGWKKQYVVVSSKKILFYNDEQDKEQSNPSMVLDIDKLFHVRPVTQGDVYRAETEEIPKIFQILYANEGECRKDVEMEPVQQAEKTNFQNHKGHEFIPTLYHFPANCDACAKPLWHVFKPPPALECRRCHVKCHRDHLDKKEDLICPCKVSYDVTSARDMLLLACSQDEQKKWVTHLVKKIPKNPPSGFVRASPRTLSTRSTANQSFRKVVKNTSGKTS", "conditions": "cited from earlier work"}, "[10]": {"system": "ALK1, ALK2, ALK3 or ALK6", "conditions": "cited from earlier work"}, "[11]": {"biological_target": "T1, ALK4 (Homo sapiens, UniProt P36896)", "T1 sequence (P36896 24-505)": "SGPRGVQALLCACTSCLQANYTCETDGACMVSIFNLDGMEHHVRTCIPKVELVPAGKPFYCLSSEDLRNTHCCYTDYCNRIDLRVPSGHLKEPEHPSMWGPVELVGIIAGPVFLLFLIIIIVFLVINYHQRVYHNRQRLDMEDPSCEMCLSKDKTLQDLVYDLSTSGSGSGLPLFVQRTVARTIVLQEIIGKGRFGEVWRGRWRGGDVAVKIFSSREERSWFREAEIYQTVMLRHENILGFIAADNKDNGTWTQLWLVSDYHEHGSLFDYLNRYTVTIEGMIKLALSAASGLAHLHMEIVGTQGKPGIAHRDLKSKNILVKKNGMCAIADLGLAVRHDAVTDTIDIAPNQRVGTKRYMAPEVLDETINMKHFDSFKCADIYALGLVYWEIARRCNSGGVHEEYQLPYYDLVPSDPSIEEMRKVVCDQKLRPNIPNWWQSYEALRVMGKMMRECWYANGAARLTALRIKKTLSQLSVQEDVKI", "conditions": "cited from earlier work"}, "[12]": {"biological_target": "T2, ALK7 (Homo sapiens, UniProt Q8NER5)", "T2 sequence (Q8NER5 21-493)": "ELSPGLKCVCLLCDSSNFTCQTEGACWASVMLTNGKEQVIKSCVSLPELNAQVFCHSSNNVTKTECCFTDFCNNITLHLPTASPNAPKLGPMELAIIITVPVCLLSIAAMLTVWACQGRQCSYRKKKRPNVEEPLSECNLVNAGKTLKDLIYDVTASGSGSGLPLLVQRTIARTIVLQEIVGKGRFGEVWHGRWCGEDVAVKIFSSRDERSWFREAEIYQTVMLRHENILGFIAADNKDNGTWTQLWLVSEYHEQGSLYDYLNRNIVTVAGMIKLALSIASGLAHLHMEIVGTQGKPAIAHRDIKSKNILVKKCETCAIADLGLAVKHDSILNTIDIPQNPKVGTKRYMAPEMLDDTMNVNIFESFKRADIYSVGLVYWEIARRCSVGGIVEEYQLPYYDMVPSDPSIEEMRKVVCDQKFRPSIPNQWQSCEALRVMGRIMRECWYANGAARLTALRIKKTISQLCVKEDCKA", "conditions": "in words; cited from earlier work"}, "[13]": {"system": "ALK2, ALK3 and ALK6", "conditions": "cited from earlier work"}, "[14]": {"system": "p38, MAPK and other kinases", "conditions": "cited from earlier work"}, "[15]": {"biological_target": "GSK-3β (Homo sapiens, UniProt P49841)", "sequence (P49841 whole entry)": "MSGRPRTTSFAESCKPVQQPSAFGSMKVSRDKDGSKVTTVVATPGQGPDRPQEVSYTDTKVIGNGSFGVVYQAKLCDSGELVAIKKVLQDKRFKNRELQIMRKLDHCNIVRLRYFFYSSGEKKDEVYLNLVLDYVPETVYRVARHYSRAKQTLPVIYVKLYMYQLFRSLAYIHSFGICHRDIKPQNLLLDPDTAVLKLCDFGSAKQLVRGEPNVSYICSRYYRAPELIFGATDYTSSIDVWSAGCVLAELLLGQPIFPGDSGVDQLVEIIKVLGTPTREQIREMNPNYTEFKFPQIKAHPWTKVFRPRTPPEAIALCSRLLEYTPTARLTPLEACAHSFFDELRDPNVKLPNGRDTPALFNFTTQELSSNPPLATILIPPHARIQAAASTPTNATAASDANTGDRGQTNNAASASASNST", "conditions": "cited from earlier work"}, "[16]": {"system": "human embryonic stem cells (hESCs)", "conditions": "cited from earlier work"}, "[17]": {"system": "ROCK", "conditions": "cell-free assays; cited from earlier work"}, "[18]": {"system": "PKC, cAMP-dependent protein kinases, MLCK and PAK", "conditions": "cited from earlier work"}, "[19]": {"system": "CYP1A2", "format": "cell-based, human"}, "[20]": {"biological_target": "GSK-3α (Homo sapiens, UniProt P49840)", "sequence (P49840 whole entry, species assumed)": "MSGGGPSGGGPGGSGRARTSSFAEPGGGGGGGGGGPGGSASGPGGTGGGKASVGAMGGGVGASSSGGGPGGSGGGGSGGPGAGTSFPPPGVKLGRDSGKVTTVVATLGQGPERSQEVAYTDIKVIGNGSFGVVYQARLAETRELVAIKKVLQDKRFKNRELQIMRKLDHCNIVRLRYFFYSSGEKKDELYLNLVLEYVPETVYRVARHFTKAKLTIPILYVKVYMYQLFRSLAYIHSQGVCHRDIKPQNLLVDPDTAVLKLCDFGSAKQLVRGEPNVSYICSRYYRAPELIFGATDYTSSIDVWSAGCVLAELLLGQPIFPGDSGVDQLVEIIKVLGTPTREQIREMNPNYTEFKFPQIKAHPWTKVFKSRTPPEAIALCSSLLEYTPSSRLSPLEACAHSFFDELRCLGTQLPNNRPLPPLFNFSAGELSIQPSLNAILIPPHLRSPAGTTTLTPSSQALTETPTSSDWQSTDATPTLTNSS", "conditions": "cited from earlier work"}, "[21]": {"biological_target": "TGF-βRII (Homo sapiens, UniProt P37173)", "sequence (P37173 23-567)": "as the sequence (P37173 23-567) above", "conditions": "cited from earlier work"}},
  "data": [
    {"compound": "N#Cc1ccc2[nH]c(O)c(-c3ccc(CN4CCOCC4)cn3)c2c1", "note": "[AZD1080]", "values": [
      {"measurement": "oral bioavailability", "setting": "[1]", "result": "orally bioavailable"},
      {"measurement": "permeability to the brain", "setting": "[2]", "result": "permeable to the brain"}
    ]},
    {"compound": "CN1CCN(S(=O)(=O)c2ccc(-c3cnc(N)c(C(=O)Nc4cccnc4)n3)cc2)CC1", "note": "[AZD2858]", "values": [
      {"measurement": "effect on the Wnt signaling pathway", "setting": "[3]", "result": "enhances"}
    ]},
    {"compound": "Cc1cnc(-c2cnc(NCCNc3ccc(C#N)cn3)nc2-c2ccc(Cl)cc2Cl)[nH]1", "note": "[CHIR-99021]", "values": [
      {"measurement": "times more inhibitory on GSK-3α and GSK-3β than on CDC2, ERK2 and other kinases", "setting": "[4]", "result": 500, "unit": "times"}
    ]},
    {"compound": "Cc1cccc(-c2[nH]c(CNc3ccccc3F)nc2-c2ccc3ncnn3c2)n1", "note": "[EW-7197]", "values": [
      {"measurement": "oral bioavailability", "setting": "[1]", "result": "orally bioavailable"}
    ]},
    {"compound": "O=C(NC1CCOCC1)c1ccc(-c2cc(-c3c[nH]nc3-c3ccccn3)ccn2)cc1", "note": "[GW788388]", "values": [
      {"measurement": "inhibition of the activity of TGF-β type II receptors", "setting": "[5]", "result": "inhibits"},
      {"measurement": "inhibition of the activity of activin type II receptors", "setting": "[6]", "result": "inhibits"},
      {"measurement": "inhibition of the activity of BMP type II receptors", "setting": "[7]", "result": "does not inhibit"}
    ]},
    {"compound": "c1ccc(-c2nn3c(c2-c2ccnc4cc(OCCN5CCOCC5)ccc24)CCC3)nc1", "note": "[LY2109761]", "values": [
      {"measurement": "Ki", "setting": "[8]", "result": 300, "unit": "nM"}
    ]},
    {"compound": "O=C(NCc1cccc(O)c1)Nc1nc(-c2ccncc2)cs1", "note": "[RKI-1447]", "values": [
      {"measurement": "IC50", "setting": "[9]", "result": 14.5, "unit": "nM"}
    ]},
    {"compound": "Cc1cccc(-c2[nH]c(C(C)(C)C)nc2-c2ccc3c(c2)OCO3)n1", "note": "[SB505124]", "values": [
      {"measurement": "inhibition of ALK1, ALK2, ALK3 or ALK6", "setting": "[10]", "result": "does not inhibit"},
      {"measurement": "IC50", "setting": "[11]; cell-free assays where stated", "result": 129, "unit": "nM"},
      {"measurement": "inhibition of ALK7", "setting": "[12]", "result": "inhibits"}
    ]},
    {"compound": "Cc1cccc(-c2[nH]c(C(C)(C)C)nc2-c2ccc3nccnc3c2)n1", "note": "[SB525334]", "values": [
      {"measurement": "effect on ALK4, times lower than on ALK5", "setting": "[11]", "result": 4, "unit": "times"},
      {"measurement": "activity on ALK2, ALK3 and ALK6", "setting": "[13]", "result": "no activity"}
    ]},
    {"compound": "NC(=O)c1ccc(-c2nc(-c3ccc4c(c3)OCO4)c(-c3ccccn3)[nH]2)cc1", "note": "[SB-431542]", "values": [
      {"measurement": "times more inhibitory on ALK5 than on p38, MAPK and other kinases", "setting": "[14]", "result": 100, "unit": "times"}
    ]},
    {"compound": "Nc1cccc(-c2cc3c(Oc4cccc(O)c4)ncnc3[nH]2)c1", "note": "[TWS119]", "values": [
      {"measurement": "IC50", "setting": "[15]", "result": 30, "unit": "nM"}
    ]},
    {"compound": "O=C(NCc1ccccc1)c1csc(Nc2ccncn2)n1", "note": "[Thiazovivin]", "values": [
      {"measurement": "survival of human embryonic stem cells (hESCs) after single cell isolation", "setting": "[16]", "result": "promotes the survival"},
      {"measurement": "IC50", "setting": "[17]", "result": 500, "unit": "nM"}
    ]},
    {"compound": "C[C@@H](N)[C@H]1CC[C@H](C(=O)Nc2ccncc2)CC1", "note": "[Y-27632]", "values": [
      {"measurement": "times more inhibitory on ROCK1 than on other kinases including PKC, cAMP-dependent protein kinases, MLCK and PAK", "setting": "[18]", "result": "≥ 200", "unit": "times"}
    ]},
    {"compound": "COc1ccc2[nH]c([S+]([O-])Cc3ncc(C)c(OC)c3C)nc2c1", "note": "(centres unmarked) [omeprazole]", "values": [
      {"measurement": "activity of P450 enzyme (CYP1A2) when induced", "setting": "[19]", "result": "enhanced"}
    ]},
    {"compound": "CHIR-98014", "values": [
      {"measurement": "IC50", "setting": "[20]", "result": 0.65, "unit": "nM"}
    ]},
    {"compound": "SD-208", "values": [
      {"measurement": "times more selective on TGF-βRI than on TGF-βRII", "setting": "[21]", "result": "≥ 100", "unit": "times"}
    ]}
  ]
}
